Reference: BindingDB's records for doi:10.1021/ml200284s (2012)

assay: Inhibition of dynamin1-mediated endocytosis in human U2OS cells assessed as inhibition of Texas red-Tf uptake incubated for 30 mins prior to Texas red-Tf addition measured after 8 mins by receptor-mediated endocytosis assay

IC50 [µM]	SMILES
18.1	O=C1N=C(S)SC1=Cc1cc(Cl)cc(Cl)c1
5.9	C=CCN1C(=O)/C(=C/c2ccc(OCCCN(C)C)cc2)SC1=S
> 100	O=C(O)CN1C(=O)/C(=C/c2csc3ccc(Cl)cc23)SC1=S
